# Laboratory results as given in US20230051268A1, “USE OF L[…] TREATING INSOMNIA” (Eisai R&D Management Co., Ltd., priority 2019, published 2023).
# “And” between values parts separate entries of the source, which are not always exact repeats. Identical values can stand only once. Like-named read-outs stand apart in the source and are kept apart here. Marks after values point to notes of the source that are not given here.
# Legend:
# [1] = Single-dose pharmacokinetic study of lemborexant and metabolites M4, M9, M10 in subjects with mild or moderate hepatic impairment and healthy controls (plasma, LC-MS/MS); format: in vivo, human; conditions: for Ratio (%) (Test/Ref) of geometric mean AUC(0-inf) / Ratio (%) (Test/Ref) of geometric mean AUC(0-t) / Ratio (%) (Test/Ref) of geometric mean Cmax: lemborexant 10 mg single dose; for half-life / AUC(0-inf) / Vd/F / Cmax / AUC(0-t) / AUCu / CL/F / CLu/F: geometric mean (% CV); for Vd/F: read-out: Vz/F
# Protocol: A multicenter, single-dose, open-label, parallel-group study in subjects with mild or moderate hepatic impairment and matched (with regard to age [±10 years], sex, and body mass index [BMI, ±20%]) healthy subjects as controls was performed.
# The primary objective of the study was to assess the effect of mild and moderate hepatic impairment on the PK of lemborexant after a single-dose administration.
# Secondary objectives of the study were: to evaluate the effects of hepatic impairment on the PK of lemborexant metabolites M4, M9, and M10; to evaluate the relationship between the PK parameters of lemborexant and its metabolites and the Child-Pugh classification score, serum albumin, total bilirubin, and PT; and to assess safety and tolerability of lemborexant following a single-dose administration in subjects with mild or moderate hepatic impairment and healthy control subjects.
# (§1) On Day 1, the subjects were administered a single oral 10 mg dose of lemborexant with approximately 240 mL of water in the morning after an overnight fast. No food was allowed for at least 4 hours postdose. Water was allowed as desired except for 1 hour before and after drug administration.
# (§2) The blood samples for PK assessments were collected at prespecified intervals up to 312 hours postdose administration. In addition, the blood samples for plasma protein binding assessments of lemborexant were collected from each subject at 2 time points; approximately 1 hour and 24 hours postdose. The subjects were discharged on Day 14 of the study. The end of the study was the date of the last study visit for the last subject.
# (§3) Blood samples (4 mL each) for PK assessments of lemborexant and its metabolites (M4, M9, and M10) were collected at predose (0 hour), 0.5, 1, 1.5, 2, 3, 4, 6, 8, 12, 24, 48, 72, 96, 120, 144, 168, 216, 264, and 312 hours postdose. In addition, blood samples (12 mL per time point) for protein binding of lemborexant and its metabolites (M4, M9, and M10) were collected at 1 and 24 hours postdose matching the PK sample collection at those time points.
# (§4) Total mean plasma concentrations of lemborexant and lemborexant metabolites (M4, M9, and M10) were measured by validated liquid chromatography with tandem mass spectrometry (LC-MS/MS). Unbound lemborexant concentrations of lemborexant, M4, M9, and M10 were also measured using a similar validated LC-MS/MS method following equilibrium dialysis.
# [2] = Plasma protein binding (unbound fraction) by equilibrium dialysis and LC-MS/MS, samples 1 and 24 hours postdose; format: in vitro ADME; conditions: human, oral, 10 mg, lemborexant 10 mg single oral dose, geometric mean (% CV)
# Protocol: as §2, §3, §4
# [3] = Safety and tolerability assessment (TEAEs, ECGs, vital signs, laboratory tests) after single 10 mg dose; format: in vivo, human
# Protocol: as §1
# Safety was assessed by monitoring and documenting treat-emergent adverse events (TEAEs), ECGs, vital signs, weight, physical examinations, and clinical laboratory tests (urinalysis, hematology, and blood chemistry).
# [4] = human, plasma, po, 10 mg, lemborexant 10 mg single oral dose, normal hepatic function (n = 8)
# [5] = lemborexant 10 mg single oral dose, mild hepatic impairment (n = 7)
# [6] = lemborexant 10 mg single oral dose, moderate hepatic impairment (n = 6)
# [7] = lemborexant 10 mg single oral dose, normal hepatic function (n = 8)
# [8] = moderate hepatic impairment, 10 mg
smiles,measurement,setting,value
"Cc1ncc(OC[C@@]2(c3cccc(F)c3)C[C@H]2C(=O)Nc2ccc(F)cn2)c(C)n1 [lemborexant, (1R,2S)-2-(((2,4-dimethylpyrimidin-5-yl)oxy)methyl)-2-(3-fluorophenyl)-N-(5-fluoropyridin-2-yl)cyclopropanecarboxamide]",Ratio (%) (Test/Ref) of geometric mean AUC(0-inf),[1]; Mild: Normal,125.03%
same,Ratio (%) (Test/Ref) of geometric mean AUC(0-t),[1]; Mild: Normal,131.91%
same,Ratio (%) (Test/Ref) of geometric mean Cmax,[1]; Mild: Normal,157.86%
same,Ratio (%) (Test/Ref) of geometric mean AUC(0-inf),[1]; Moderate: Normal,153.56%
same,Ratio (%) (Test/Ref) of geometric mean AUC(0-t),[1]; Moderate: Normal,149.52%
same,Ratio (%) (Test/Ref) of geometric mean Cmax,[1]; Moderate: Normal,122.20%
same,Tmax,"[1]; human, plasma, oral, 10 mg, normal, mild and moderate cohorts, 10 mg tablet, read-out: median tmax across cohorts",1 to 1.25 h
same,half-life,"[1]; human, plasma, po, 10 mg, lemborexant 10 mg single oral dose, mild hepatic impairment (lemborexant n = 7)",73.7 h
same,AUC(0-inf),"[1]; human, plasma, po, 10 mg, lemborexant 10 mg single oral dose, mild hepatic impairment (lemborexant n = 7), read-out: AUC(0-inf)",567 ng·h/mL
same,Vd/F,"[1]; human, plasma, po, 10 mg, lemborexant 10 mg single oral dose, mild hepatic impairment (n = 7)",1880 L
same,Cmax,"[1]; human, plasma, po, 10 mg, lemborexant 10 mg single oral dose, mild hepatic impairment (n = 8)",62.9 ng/mL
same,AUC(0-t),"[1]; human, plasma, po, 10 mg, lemborexant 10 mg single oral dose, mild hepatic impairment (n = 8), read-out: AUC(0-t)",574 ng·h/mL
same,Tmax,"[1]; human, plasma, po, 10 mg, lemborexant 10 mg single oral dose, mild hepatic impairment (n = 8), median (range), read-out: tmax",1 h
same,half-life,"[1]; human, plasma, po, 10 mg, lemborexant 10 mg single oral dose, moderate hepatic impairment (lemborexant n = 6)",105 h
same,AUC(0-inf),"[1]; human, plasma, po, 10 mg, lemborexant 10 mg single oral dose, moderate hepatic impairment (lemborexant n = 6), read-out: AUC(0-inf)",696 ng·h/mL
same,Vd/F,"[1]; human, plasma, po, 10 mg, lemborexant 10 mg single oral dose, moderate hepatic impairment (n = 6)",2170 L
same,Cmax,"[1]; human, plasma, po, 10 mg, lemborexant 10 mg single oral dose, moderate hepatic impairment (n = 8)",48.7 ng/mL
same,AUC(0-t),"[1]; human, plasma, po, 10 mg, lemborexant 10 mg single oral dose, moderate hepatic impairment (n = 8), read-out: AUC(0-t)",651 ng·h/mL
same,Tmax,"[1]; human, plasma, po, 10 mg, lemborexant 10 mg single oral dose, moderate hepatic impairment (n = 8), median (range), read-out: tmax",1 h
same,Cmax,[1]; [4],39.8 ng/mL
same,half-life,[1]; [4],67 h
same,AUC(0-inf),"[1]; human, plasma, po, 10 mg, lemborexant 10 mg single oral dose, normal hepatic function (n = 8), read-out: AUC(0-inf)",453 ng·h/mL
same,AUC(0-t),"[1]; human, plasma, po, 10 mg, lemborexant 10 mg single oral dose, normal hepatic function (n = 8), read-out: AUC(0-t)",435 ng·h/mL
same,Vd/F,[1]; [4],2130 L
same,Tmax,"[1]; human, plasma, po, 10 mg, lemborexant 10 mg single oral dose, normal hepatic function (n = 8), median (range), read-out: tmax",1.25 h
same,AUC(0-inf),"[1]; lemborexant 10 mg single oral dose, mild hepatic impairment (lemborexant n = 7)",567 ng·h/mL
same,AUCu,[1]; [5],34.9 (52.6)^b h * ng/mL
same,CL/F,[1]; [5],17.6 L/h and 17.6 (52.0)^b L/h
same,CLu/F,[1]; [5],287 (52.6)^b L/h
same,AUC(0-t),"[1]; lemborexant 10 mg single oral dose, mild hepatic impairment (n = 8)",574 ng·h/mL
same,AUC(0-inf),"[1]; lemborexant 10 mg single oral dose, moderate hepatic impairment (lemborexant n = 6)",696 ng·h/mL
same,AUCu,[1]; [6],45.1 (42.6)^c h * ng/mL
same,CL/F,[1]; [6],14.4 L/h and 14.4 (34.6)^c L/h
same,CLu/F,[1]; [6],222 (42.6)^c L/h
same,AUC(0-t),"[1]; lemborexant 10 mg single oral dose, moderate hepatic impairment (n = 8)",651 ng·h/mL
same,AUCu,[1]; [7],27.1 (36.8) h * ng/mL
same,CL/F,[1]; [7],22.1 L/h and 22.1 (33.9) L/h
same,decrease of total body clearance compared with healthy subjects,"[1]; mild hepatic impairment, 10 mg",20%
same,increase of AUC(0-inf) compared to healthy subjects,"[1]; mild hepatic impairment, 10 mg",25%
same,increase of Cmax compared to healthy subjects,"[1]; mild hepatic impairment, 10 mg",58%
same,"exposure (geometric mean Cmax, AUC) compared with healthy control subjects","[1]; mild or moderate hepatic impairment, single 10-mg tablet",higher
same,decrease of total body clearance compared with healthy subjects,[1]; [8],35%
same,increase of AUC(0-inf) compared to healthy subjects,[1]; [8],54%
same,increase of Cmax compared to healthy subjects,[1]; [8],22%
same,"effects of mild and moderate hepatic impairment on PK (scatter plots, linear regression)","[1]; vs Child-Pugh score, serum albumin, total bilirubin, MELD score, PT",small and similar
same,fraction unbound,[2]; mild hepatic impairment (n = 8),0.063
same,fraction unbound,[2]; moderate hepatic impairment (n = 8),0.065
same,fraction unbound,[2]; normal hepatic function (n = 8),0.0597
same,subjects who experienced a TEAE,[3]; Class A (mild hepatic impairment),7 (87.5%) subjects (%)
same,subjects who experienced a TEAE,[3]; Class B (moderate hepatic impairment),6 (75.0%) subjects (%)
same,subjects who experienced a TEAE,[3]; Healthy Controls,7 (87.5%) subjects (%)
same,subjects who experienced a TEAE,[3]; all 24 subjects,20 (83.3%) subjects (%)
same,TEAEs potentially related to cataplexy,[3]; all cohorts,no TEAEs potentially related to cataplexy
same,TEAEs that led to subject discontinuation,[3]; all cohorts,none
same,severity of TEAEs,[3]; all cohorts,mild in severity
same,SAEs reported,"[3]; all cohorts, single 10 mg dose",No SAEs were reported
